Columns and labels:
VEGFR-2 (KDR) = molecular target: T1, VEGFR-2 (KDR) (Homo sapiens, UniProt P35968); assay: KDR Assay - HTRF KinEASE-TK (in vitro KDR inhibition); assay type: biochemical; details: ATP 100 μM, 15 minutes at rt
T1 construct: purchased Millipore 14-630
Procedure: KDR Assay—HTRF KinEASE-TK
The compounds to be tested were dissolved in DMSO at 10 mM, stored at −20° C. and protected from light. The maximum concentration of DMSO in the in vitro assay was 0.75%. Control samples received the same concentration of solvent as the samples treated with the test compounds.
For the kinase assays, the HTRF KinEase™-TK kit (CisBio (#62TKOPEJ) was used. All components in HTRF KinEase™-TK kit were handled according to suppliers description. Briefly, DMSO stock solution of compounds (100% DMSO) were prediluted to 6% DMSO in 50 mM Hepesbuffer+0.05% BSA (Sigma Aldrich (A3294)) before transferring 1 μl to a 384-well Proxyplate (Perkin Elmer (#6008289) at RT. Kinase Substrate (2 μL, CisBio) was added to Proxyplate with compound. Enzyme mix (5 μL, Millipore (14-630)) with ATP (100 μM, Sigma Aldrich (A7699)), MgCl2 (5 mM; Sigma Aldrich M1028) and SEB (50 nM, CisBio) was added to start the reaction. The plates were incubated for 15 minutes at rt. The assay was stopped by addition of Detection mix (4 μL, CisBio) and plates were sealed and spun for 1 min at 1000 rpm. The plates were incubated in darkness over night at rt. The plates were read on an Envision (Perkin Elmer) plate reader. Signal from two wave lengths (665 and 620 nm) upon excitation at 340 nm in accordance to manufactures instructions. Briefly, fluorescence was measured for 400 μs between flashes after a delay time of 400 μs. The background measured in the absence of enzyme was subtracted from all samples. The molar concentrations that inhibited 50% of the maximal enzymatic activity (IC50) were calculated using a four-parameter sigmoid curve fit model of the dose-response curve, based on the following equation: y=((a−d)/(1+(x/c)^b))+d; where a is the minimum value, d is the maximum value, c is the IC50 value and […].

[1] = Metabolic stability in human liver microsomes (HLM); assay type: in vitro ADME; set-up: CLint scaled: dose or concentration left out as unconfirmed; details: both sexes, pH 7.4; for CL/F at 0.5 μM: human liver microsomes 0.5 mg protein/mL, NADPH 1 mM, test compound 0.5 μM, 37° C., 30 minutes, read-out: HLM (apparent clearance)
Procedure: The metabolic stability is tested in human liver microsomes (In Vitro Technologies, pooled mixed sexes, 20 mg/mL); a subcellular fraction containing major drug-metabolizing phase I enzymes, including the cytochrome P450 (CYP) family and flavin monooxygenases (FMO). The apparent clearance (mL/min/kg) is calculated as a measurement of test compound elimination from the liver.
Procedure: A human microsome incubation mixture (0.5 mg microsomal protein/mL) in phosphate buffer (pH 7.4, 100 mM KH2PO4/10 mM MgCl2) is mixed with NADPH (1 mM). The mixture is pre-heated (7 min) to 37° C., test compound (0.5 μM) is added, and the mixture is incubated for 30 minutes. Incubations are run in duplicate and performed by a Tecan RSP. Samples are withdrawn at 0, 5, 10, 20, and 30 min and mixed with methanol containing internal standard to terminate all enzyme activity and precipitate proteins. […] Samples are analysed by LC-MS/MS.
Data analysis: The logarithm of the peak area ratios of test compound to internal standard versus incubation time is plotted in a graph. The rate constant (k) of test compound depletion is calculated from the linear part of the curve (Eq. 1) and the half-time (t1/2) is calculated from the slope (Eq. 2). Rate constant(k)(min^−1)=−slope Eq. 1 Half-time(t1/2)(min)=ln 2/k Eq. 2
Clint(mL/min/mg protein)=k/Protein concentration Eq. 3

[2] = human, human liver microsomes, HLM assay reference compounds, read-out: intrinsic clearance values of HLM assay reference compounds

T1 sequence (P35968 790-1356 limits assumed): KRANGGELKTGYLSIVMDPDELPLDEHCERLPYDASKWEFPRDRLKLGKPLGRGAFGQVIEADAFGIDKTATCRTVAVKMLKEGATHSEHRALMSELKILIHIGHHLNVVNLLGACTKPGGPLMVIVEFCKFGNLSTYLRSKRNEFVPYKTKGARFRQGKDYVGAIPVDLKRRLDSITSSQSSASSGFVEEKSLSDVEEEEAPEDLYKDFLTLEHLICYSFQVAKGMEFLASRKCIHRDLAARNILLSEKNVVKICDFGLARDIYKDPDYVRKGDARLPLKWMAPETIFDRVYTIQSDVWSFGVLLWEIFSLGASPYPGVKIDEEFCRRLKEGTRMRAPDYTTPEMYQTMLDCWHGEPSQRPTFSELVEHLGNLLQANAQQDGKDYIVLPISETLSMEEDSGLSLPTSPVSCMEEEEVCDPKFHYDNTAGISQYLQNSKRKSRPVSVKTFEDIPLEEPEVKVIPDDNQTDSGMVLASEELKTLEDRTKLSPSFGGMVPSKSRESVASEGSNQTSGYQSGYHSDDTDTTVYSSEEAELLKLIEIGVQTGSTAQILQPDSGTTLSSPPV

Compound	IC50 (VEGFR-2 (KDR)) [nM]	CL/F at 0.5 μM [1] [mL/min/kg]	CLint scaled [1, 2] [mL/min/kg]	CLint scaled at 0.5 μM [1, 2] [mL/min/kg]
CCC(CC)CCNC(=O)c1ccccc1NCc1ccnc(NC(=O)c2cnco2)c1 [Compound 104, Oxazole-5-carboxylic acid (4-{[2-(3-ethyl-pentylcarbamoyl)-phenylamino]-methyl}-pyridin-2-yl)-amide]	15	120	–	–
O=C(Nc1cc(CNc2ccccc2C(=O)NCCC2=CCCCC2)ccn1)c1ccco1 [Compound 108, Furan-2-carboxylic acid (4-{[2-(2-cyclohex-1-enyl-ethylcarbamoyl)-phenylamino]-methyl}-pyridin-2-yl)-amide]	44	> 200	–	–
Cc1ncc2n1-c1ccc(Cl)cc1C(c1ccccc1F)=NC2 [Midazolam, reference compound]	–	–	> 200	–
CCC(CC)CCNC(=O)c1ccccc1NCc1ccnc(NC(C)=O)c1 [Compound 103, 2-[(2-Acetylamino-pyridin-4-ylmethyl)-amino]-N-(3-ethyl-pentyl)-benzamide]	19	> 200	–	–
CC(C)CCCNC(=O)c1ccccc1NCc1ccnc(NC(=O)c2ccco2)c1 [Compound 106, Furan-2-carboxylic acid (4-{[2-(4-methyl-pentylcarbamoyl)-phenylamino]-methyl}-pyridin-2-yl)-amide]	17	> 200	–	–
O=C(Nc1cc(CNc2ccccc2C(=O)NCCC2CCCC2)ccn1)c1ccco1 [Compound 105, Furan-2-carboxylic acid (4-{[2-(2-cyclopentyl-ethylcarbamoyl)-phenylamino]-methyl}-pyridin-2-yl)-amide]	43	> 200	–	–
CC(=O)Nc1cc(CNc2ccccc2C(=O)NCCC2CCCC2)ccn1 [Compound 102, 2-[(2-Acetylamino-pyridin-4-ylmethyl)-amino]-N-(2-cyclopentyl-ethyl)-benzamide]	8	> 200	–	–
CCC(CC)CCNC(=O)c1ccccc1NCc1ccnc(NC(=O)c2ccco2)c1 [Compound 109, Furan-2-carboxylic acid (4-{[2-(3-ethyl-pentylcarbamoyl)-phenylamino]-methyl}-pyridin-2-yl)-amide]	53	> 200	–	–
COC(=O)Nc1cc(CNc2ccccc2C(=O)NCCC(C)(C)C)ccn1 [Compound 101, (4-{[2-(3,3-Dimethyl-butylcarbamoyl)-phenylamino]-methyl}-pyridin-2-yl)-carbamic acid methyl ester]	11	135	–	–
CC(=O)CC(c1ccccc1)c1c(O)c2ccccc2oc1=O (centres unmarked) [Warfarin, reference compound]	–	–	–	< 10
CC(C)(C)CCNC(=O)c1ccccc1NCc1ccnc(NC(=O)c2ccco2)c1 [Compound 107, Furan-2-carboxylic acid (4-{[2-(3,3-dimethyl-butylcarbamoyl)-phenylamino]-methyl}-pyridin-2-yl)-amide]	39	> 200	–	–
